Results taken from publication PMC5218480 (PLoS ONE, 2017).

Test system: MV-4-11 cells
Test: Gene expression microarray analysis (Affymetrix PrimeView) and GSEA
Assay type: cell-based, human
Parameters: RFU PODN (11730768_x_at) / Fold change /veh PODN (11730768_x_at) / RFU LINC00158 (11744669_a_at) / Fold change /veh LINC00158 (11744669_a_at) / RFU DUSP10 (11751237_a_at) / Fold change /veh DUSP10 (11751237_a_at) / RFU ID3 (11757404_x_at) / Fold change /veh ID3 (11757404_x_at) / RFU PLEKHG5 (11737974_s_at) / Fold change /veh PLEKHG5 (11737974_s_at) / RFU LRRC4B (11730491_at) / Fold change /veh LRRC4B (11730491_at) / RFU GIMAP4 (11747438_a_at) / Fold change /veh GIMAP4 (11747438_a_at) / RFU KRT8 (11758183_x_at) / Fold change /veh KRT8 (11758183_x_at) / RFU CNN1 (11734310_a_at) / Fold change /veh CNN1 (11734310_a_at) / RFU VPS37D (11726825_at) / Fold change /veh VPS37D (11726825_at) / RFU C10orf10 (11716522_x_at) / Fold change /veh C10orf10 (11716522_x_at) / RFU KIR2DL2 /// KIR2DL4 /// KIR2DL5A /// KIR2DL5B /// KIR2DS1 /// KIR2DS2 /// KIR2DS3 /// KIR2DS4 /// KIR3DL3 /// KIR3DL3 /// KIR3DS1 (11738374_at) / Fold change /veh KIR2DL2 /// KIR2DL4 /// KIR2DL5A /// KIR2DL5B /// KIR2DS1 /// KIR2DS2 /// KIR2DS3 /// KIR2DS4 /// KIR3DL3 /// KIR3DL3 /// KIR3DS1 (11738374_at) / RFU C1QL1 (11718748_at) / Fold change /veh C1QL1 (11718748_at) / RFU TMPRSS4 (11747572_a_at) / Fold change /veh TMPRSS4 (11747572_a_at) / RFU HAMP (11756126_x_at) / Fold change /veh HAMP (11756126_x_at) / RFU RNFT2 (11725882_a_at) / Fold change /veh RNFT2 (11725882_a_at) / RFU NR4A2 (11747474_a_at) / Fold change /veh NR4A2 (11747474_a_at) / RFU ABCC12 (11746883_a_at) / Fold change /veh ABCC12 (11746883_a_at) / RFU TMEM136 (11760407_x_at) / Fold change /veh TMEM136 (11760407_x_at) / RFU CLDN22 /// WWC2 (11732394_at) / Fold change /veh CLDN22 /// WWC2 (11732394_at) / RFU HLA-DPB1 (11760878_x_at) / Fold change /veh HLA-DPB1 (11760878_x_at) / RFU SPINT1 (11716480_a_at) / Fold change /veh SPINT1 (11716480_a_at) / RFU GAP43 (11754022_s_at) / Fold change /veh GAP43 (11754022_s_at) / RFU A4GNT (11735810_at) / Fold change /veh A4GNT (11735810_at) / RFU PRB3 (11715151_x_at) / Fold change /veh PRB3 (11715151_x_at) / RFU TUBB4B (11761932_at) / Fold change /veh TUBB4B (11761932_at) / RFU CAPN14 (11732068_a_at) / Fold change /veh CAPN14 (11732068_a_at) / RFU TMCC2 (11721928_a_at) / Fold change /veh TMCC2 (11721928_a_at) / RFU IRGQ (11745062_a_at) / Fold change /veh IRGQ (11745062_a_at) / RFU FAM174B (11720279_a_at) / Fold change /veh FAM174B (11720279_a_at) / RFU TMPRSS4 (11748680_a_at) / Fold change /veh TMPRSS4 (11748680_a_at) / RFU FAM212B (11763350_a_at) / Fold change /veh FAM212B (11763350_a_at) / RFU PLEKHG5 (11743358_a_at) / Fold change /veh PLEKHG5 (11743358_a_at) / RFU ZSCAN30 (11745921_a_at) / Fold change /veh ZSCAN30 (11745921_a_at) / RFU CMKLR1 (11741424_a_at) / Fold change /veh CMKLR1 (11741424_a_at) / RFU LOC101060620 /// MAPK8IP1 (11723275_at) / Fold change /veh LOC101060620 /// MAPK8IP1 (11723275_at) / RFU SPTSSB (11747773_x_at) / Fold change /veh SPTSSB (11747773_x_at) / RFU PRSS12 (11739890_at) / Fold change /veh PRSS12 (11739890_at) / RFU BIN1 (11741810_x_at) / Fold change /veh BIN1 (11741810_x_at) / RFU WNT11 (11732464_a_at) / Fold change /veh WNT11 (11732464_a_at) / RFU C10orf10 (11716521_a_at) / Fold change /veh C10orf10 (11716521_a_at) / RFU C5orf56 (11738089_at) / Fold change /veh C5orf56 (11738089_at) / RFU CYB561 (11721691_x_at) / Fold change /veh CYB561 (11721691_x_at) / RFU ANKRD19P (11752326_a_at) / Fold change /veh ANKRD19P (11752326_a_at) / RFU OR2T12 /// OR2T33 /// OR2T8 (11738714_s_at) / Fold change /veh OR2T12 /// OR2T33 /// OR2T8 (11738714_s_at) / RFU VCAN (11748164_a_at) / Fold change /veh VCAN (11748164_a_at) / RFU JSRP1 (11732532_at) / Fold change /veh JSRP1 (11732532_at) / RFU KRTAP10-11 (11738290_x_at) / Fold change /veh KRTAP10-11 (11738290_x_at) / RFU MYO3A (11730013_a_at) / Fold change /veh MYO3A (11730013_a_at) / RFU EBF3 (11725865_a_at) / Fold change /veh EBF3 (11725865_a_at) / RFU CAMK2N1 (11719241_x_at) / Fold change /veh CAMK2N1 (11719241_x_at) / RFU C5orf56 (11738088_a_at) / Fold change /veh C5orf56 (11738088_a_at) / RFU OLFML3 (11715873_a_at) / Fold change /veh OLFML3 (11715873_a_at) / RFU LOC100653217 /// NTM (11731650_a_at) / Fold change /veh LOC100653217 /// NTM (11731650_a_at) / RFU MAPK11 (11762145_a_at) / Fold change /veh MAPK11 (11762145_a_at) / RFU FIZ1 (11724087_x_at) / Fold change /veh FIZ1 (11724087_x_at) / RFU OASL (11726364_x_at) / Fold change /veh OASL (11726364_x_at) / RFU SOX15 (11748057_x_at) / Fold change /veh SOX15 (11748057_x_at) / RFU CD79A (11719716_a_at) / Fold change /veh CD79A (11719716_a_at) / RFU HIST1H1D (11736915_at) / Fold change /veh HIST1H1D (11736915_at) / RFU CASKIN2 (11723855_a_at) / Fold change /veh CASKIN2 (11723855_a_at) / RFU LOC730098 (11760151_x_at) / Fold change /veh LOC730098 (11760151_x_at) / RFU OR4N2 (11742367_at) / Fold change /veh OR4N2 (11742367_at) / RFU PRRT2 (11749266_a_at) / Fold change /veh PRRT2 (11749266_a_at) / RFU SNX32 (11753110_a_at) / Fold change /veh SNX32 (11753110_a_at) / RFU CDHR5 (11726645_a_at) / Fold change /veh CDHR5 (11726645_a_at) / RFU RCAN1 (11760418_a_at) / Fold change /veh RCAN1 (11760418_a_at) / RFU FAM167A (11723789_a_at) / Fold change /veh FAM167A (11723789_a_at) / RFU FAM26E (11764081_at) / Fold change /veh FAM26E (11764081_at) / RFU ISYNA1 (11749810_s_at) / Fold change /veh ISYNA1 (11749810_s_at) / RFU ACY1 (11761880_at) / Fold change /veh ACY1 (11761880_at) / RFU 11764098_at / Fold change /veh 11764098_at / RFU SAMD14 (11745864_x_at) / Fold change /veh SAMD14 (11745864_x_at) / RFU NPB (11741838_a_at) / Fold change /veh NPB (11741838_a_at) / RFU TMPRSS6 (11731388_a_at) / Fold change /veh TMPRSS6 (11731388_a_at) / RFU KRTAP10-2 (11738614_at) / Fold change /veh KRTAP10-2 (11738614_at) / RFU ARHGAP8 /// PRR5-ARHGAP8 (11727945_x_at) / Fold change /veh ARHGAP8 /// PRR5-ARHGAP8 (11727945_x_at) / RFU KRTAP5-7 /// NADSYN1 (11734609_at) / Fold change /veh KRTAP5-7 /// NADSYN1 (11734609_at) / RFU RASL12 (11751679_a_at) / Fold change /veh RASL12 (11751679_a_at) / RFU CDKN2B (11736163_a_at) / Fold change /veh CDKN2B (11736163_a_at) / RFU PRF1 (11729649_at) / Fold change /veh PRF1 (11729649_at) / RFU, ZNF638 /// ZNF638-IT1 / Fold change vs veh, ZNF638 /// ZNF638-IT1 / RFU, PANK3 / Fold change vs veh, PANK3 / RFU, SH3YL1 / Fold change vs veh, SH3YL1 / RFU, ZEB2 / Fold change vs veh, ZEB2 / RFU, NRIP1 / Fold change vs veh, NRIP1 / RFU, PTTG1IP / Fold change vs veh, PTTG1IP / RFU, CAPN2 / Fold change vs veh, CAPN2 / RFU, MED14 / Fold change vs veh, MED14 / RFU, SNORA58 / Fold change vs veh, SNORA58 / RFU, C1orf63 / Fold change vs veh, C1orf63 / RFU, LRRFIP1 / Fold change vs veh, LRRFIP1 / RFU, NDUFAF7 / Fold change vs veh, NDUFAF7 / RFU, SLC12A2 / Fold change vs veh, SLC12A2 / RFU, IBTK / Fold change vs veh, IBTK / RFU, ESF1 / Fold change vs veh, ESF1 / Fold change vs veh, TMEM50B / RFU, TAOK1 / Fold change vs veh, TAOK1 / RFU, ACBD3 / Fold change vs veh, ACBD3 / RFU, TMA16 / Fold change vs veh, TMA16 / RFU, RWDD3 / Fold change vs veh, RWDD3 / RFU, BCAT1 / Fold change vs veh, BCAT1 / RFU, EDEM3 / Fold change vs veh, EDEM3 / RFU, TMEM33 / Fold change vs veh, TMEM33 / RFU, WDR75 / Fold change vs veh, WDR75 / RFU, AHCTF1 / Fold change vs veh, AHCTF1 / RFU, TFRC / Fold change vs veh, TFRC / RFU, ZDHHC17 / Fold change vs veh, ZDHHC17 / RFU, NOM1 / Fold change vs veh, NOM1 / RFU, ARL8B / Fold change vs veh, ARL8B / RFU, ZBTB11 / Fold change vs veh, ZBTB11 / RFU, TAMM41 / Fold change vs veh, TAMM41 / RFU, KIAA1704 /// LOC100996395 / Fold change vs veh, KIAA1704 /// LOC100996395 / RFU, ING1 / Fold change vs veh, ING1 / RFU, TRMT61B / Fold change vs veh, TRMT61B / RFU, FUBP3 / Fold change vs veh, FUBP3 / RFU, TP53 / Fold change vs veh, TP53 / RFU, TNKS2 / Fold change vs veh, TNKS2 / RFU, ZFP14 / Fold change vs veh, ZFP14 / RFU, ACTR2 / Fold change vs veh, ACTR2 / RFU, PPP3R1 / Fold change vs veh, PPP3R1 / RFU, PIK3R1 / Fold change vs veh, PIK3R1 / RFU, HNRNPA1 / Fold change vs veh, HNRNPA1 / RFU, RNF170 / Fold change vs veh, RNF170 / RFU, ZNF28 / Fold change vs veh, ZNF28 / RFU, RNGTT / Fold change vs veh, RNGTT / RFU, OGT / Fold change vs veh, OGT / RFU, BRD1 / Fold change vs veh, BRD1 / RFU, MARS / Fold change vs veh, MARS / RFU, ZNF655 / Fold change vs veh, ZNF655 / RFU, FAHD1 / Fold change vs veh, FAHD1 / RFU, BDP1 / Fold change vs veh, BDP1 / RFU, LRRCC1 / Fold change vs veh, LRRCC1 / RFU, ARID1A / Fold change vs veh, ARID1A / RFU, ZNF146 / Fold change vs veh, ZNF146 / RFU, ZNF330 / Fold change vs veh, ZNF330 / RFU, GPN3 / Fold change vs veh, GPN3 / RFU, C9orf123 / Fold change vs veh, C9orf123 / RFU, N4BP2L2 / Fold change vs veh, N4BP2L2 / RFU, ARFIP1 / Fold change vs veh, ARFIP1 / RFU, FAM179B / Fold change vs veh, FAM179B / RFU, BCL10 / Fold change vs veh, BCL10 / RFU, UHRF1BP1L / Fold change vs veh, UHRF1BP1L / RFU, BET1 / Fold change vs veh, BET1 / RFU, CNOT2 / Fold change vs veh, CNOT2 / RFU, ZNF268 / Fold change vs veh, ZNF268 / Fold change vs veh, ZNF507 / RFU, DGCR2 / Fold change vs veh, DGCR2 / RFU, WDSUB1 / Fold change vs veh, WDSUB1 / Fold change vs veh, HSP90B1 /// MIR3652 / RFU, ADSS / Fold change vs veh, ADSS / RFU, GK / Fold change vs veh, GK / RFU, ZNF148 / Fold change vs veh, ZNF148 / RFU, TAF9 / Fold change vs veh, TAF9 / RFU, SLC1A5 / Fold change vs veh, SLC1A5 / RFU, SLMO2 / Fold change vs veh, SLMO2 / RFU, ABCC4 / Fold change vs veh, ABCC4 / RFU, LOC101060439 /// RAP1B / Fold change vs veh, LOC101060439 /// RAP1B / RFU, RFX7 / Fold change vs veh, RFX7 / RFU, GTPBP10 / Fold change vs veh, GTPBP10 / RFU, CNEP1R1 / Fold change vs veh, CNEP1R1 / RFU, BIVM-ERCC5 /// ERCC5 / Fold change vs veh, BIVM-ERCC5 /// ERCC5 / RFU, ILF3 / Fold change vs veh, ILF3 / RFU 11762660_at / Fold change /veh 11762660_at / RFU VCAN (11757783_s_at) / Fold change /veh VCAN (11757783_s_at) / RFU DDX43 (11728927_at) / Fold change /veh DDX43 (11728927_at) / RFU KRT8 (11758188_x_at) / Fold change /veh KRT8 (11758188_x_at) / RFU NKD1 (11759106_at) / Fold change /veh NKD1 (11759106_at) / RFU SRD5A1 (11742802_a_at) / Fold change /veh SRD5A1 (11742802_a_at) / RFU TPSAB1 /// TPSB2 (11721975_s_at) / Fold change /veh TPSAB1 /// TPSB2 (11721975_s_at) / RFU GSTM3 (11746129_a_at) / Fold change /veh GSTM3 (11746129_a_at) / RFU IL23R (11737362_x_at) / Fold change /veh IL23R (11737362_x_at) / RFU TMEM51 (11727254_a_at) / Fold change /veh TMEM51 (11727254_a_at) / RFU PIWIL2 (11732686_x_at) / Fold change /veh PIWIL2 (11732686_x_at) / RFU ORM1 (11744905_x_at) / Fold change /veh ORM1 (11744905_x_at) / RFU CCDC152 (11743942_at) / Fold change /veh CCDC152 (11743942_at) / RFU ECM1 (11717891_a_at) / Fold change /veh ECM1 (11717891_a_at) / RFU IL23R (11748794_a_at) / Fold change /veh IL23R (11748794_a_at) / RFU TNFAIP8L3 (11732012_x_at) / Fold change /veh TNFAIP8L3 (11732012_x_at) / RFU MBOAT4 (11741988_at) / Fold change /veh MBOAT4 (11741988_at) / RFU 11764193_at / Fold change /veh 11764193_at / RFU TMEM53 (11763286_at) / Fold change /veh TMEM53 (11763286_at) / RFU MAGEB2 (11727129_at) / Fold change /veh MAGEB2 (11727129_at) / RFU TMEM200A (11744735_a_at) / Fold change /veh TMEM200A (11744735_a_at) / RFU CCDC152 (11751479_a_at) / Fold change /veh CCDC152 (11751479_a_at) / RFU FAM211A (11726209_a_at) / Fold change /veh FAM211A (11726209_a_at) / RFU RGS16 (11746705_a_at) / Fold change /veh RGS16 (11746705_a_at) / RFU VCAN (11755009_s_at) / Fold change /veh VCAN (11755009_s_at) / RFU RHOB (11743442_s_at) / Fold change /veh RHOB (11743442_s_at) / RFU RGS16 (11720943_a_at) / Fold change /veh RGS16 (11720943_a_at) / RFU RGS16 (11720944_at) / Fold change /veh RGS16 (11720944_at) / RFU, VPS4B / Fold change vs veh, VPS4B / RFU, CREB1 / Fold change vs veh, CREB1 / RFU, DNAJC13 / Fold change vs veh, DNAJC13 / RFU, GNAQ / Fold change vs veh, GNAQ / RFU, CDK5R1 / Fold change vs veh, CDK5R1 / RFU, ZRANB3 / Fold change vs veh, ZRANB3 / RFU, CUL4A / Fold change vs veh, CUL4A / RFU, CCNY / Fold change vs veh, CCNY / RFU, UFL1 / Fold change vs veh, UFL1 / RFU, COG3 / Fold change vs veh, COG3 / RFU, DIAPH2 / Fold change vs veh, DIAPH2 / RFU, SKA2 / Fold change vs veh, SKA2 / RFU, AFF3 / Fold change vs veh, AFF3 / RFU, LMF1 / Fold change vs veh, LMF1 / RFU, IPO11 / Fold change vs veh, IPO11 / RFU, DFFB / Fold change vs veh, DFFB / RFU, FOXP1 / Fold change vs veh, FOXP1 / RFU, CARD8 / Fold change vs veh, CARD8 / RFU, STRN3 / Fold change vs veh, STRN3 / RFU, ADK / Fold change vs veh, ADK / RFU, RASSF2 / Fold change vs veh, RASSF2 / RFU, WIPF1 / Fold change vs veh, WIPF1 / RFU, LARP1B / Fold change vs veh, LARP1B / RFU, RASA1 / Fold change vs veh, RASA1 / RFU, RB1 / Fold change vs veh, RB1 / RFU, PPFIA1 / Fold change vs veh, PPFIA1 / RFU, MAT2A / Fold change vs veh, MAT2A / RFU, CCT5 / Fold change vs veh, CCT5 / RFU, WDR92 / Fold change vs veh, WDR92 / RFU, CUX1 / Fold change vs veh, CUX1 / RFU, TTC7A / Fold change vs veh, TTC7A / RFU, TMEM135 / Fold change vs veh, TMEM135 / RFU, DEPTOR / Fold change vs veh, DEPTOR / RFU, CPM / Fold change vs veh, CPM / RFU, DNAJB6 / Fold change vs veh, DNAJB6 / RFU, CACNA2D3 / Fold change vs veh, CACNA2D3 / RFU, DTX4 / Fold change vs veh, DTX4 / RFU, TFCP2 / Fold change vs veh, TFCP2 / RFU, GMCL1 /// GMCL1P1 / Fold change vs veh, GMCL1 /// GMCL1P1 / RFU, AEBP2 / Fold change vs veh, AEBP2 / RFU, SNHG1 /// SNORD22 /// SNORD25 /// SNORD26 /// SNORD27 /// SNORD28 /// SNORD29 /// SNORD31 / Fold change vs veh, SNHG1 /// SNORD22 /// SNORD25 /// SNORD26 /// SNORD27 /// SNORD28 /// SNORD29 /// SNORD31 / Fold change (Aza/veh), C12orf56 (ProbeSet 11735607_a_at) / Fold change (ACY-1035/veh), C12orf56 (ProbeSet 11735607_a_at) / Fold change (Aza/veh), FGFR1OP (ProbeSet 11751329_s_at) / Fold change (ACY-1035/veh), FGFR1OP (ProbeSet 11751329_s_at) / Fold change (Aza/veh), VPS36 (ProbeSet 11739960_a_at) / Fold change (ACY-1035/veh), VPS36 (ProbeSet 11739960_a_at) / RFU SYPL1 (11715823_x_at) / Fold change /veh SYPL1 (11715823_x_at) / RFU IGFBP7 (11715501_s_at) / Fold change /veh IGFBP7 (11715501_s_at) / RFU REEP3 (11722064_at) / Fold change /veh REEP3 (11722064_at) / RFU IGLL1 (11728026_x_at) / Fold change /veh IGLL1 (11728026_x_at): dose or concentration left out as unconfirmed
Conditions: ProbeSet 11755425_a_at; LIST B

**Q.** For `Nc1ncn([C@@H]2O[C@H](CO)[C@@H](O)[C@H]2O)c(=O)n1` [azacitidine], which “RFU, FAM179B” value is on record?
**A.** 66.28 RFU
